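In this assay, cells in 96-well plates receive the compound at five concentrations for 48 hours. Endpoints are linearly interpolated between the surrounding concentrations. TGI is the concentration that stops growth completely.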
Columns and labels:
Test in all cases: NCI tumour cell line growth inhibition, 48 h
[1] = tested on: SNB-78 CNS
[2] = tested on: KM20L2 colon
[3] = tested on: DLD-1 colon
[4] = tested on: HOP-18 NSCLC
[5] = tested on: RXF-631 renal
[6] = tested on: LXFL 529 NSCLC
[7] = tested on: XF 498 CNS
[8] = tested on: P388 leukemia
[9] = tested on: SN12K1 renal
[10] = tested on: P388/ADR leukemia

Structure (SMILES) | TGI [1] [µM] | TGI [2] [µM] | TGI [3] [µM] | TGI [4] [µM] | TGI [5] [µM] | TGI [6] [µM] | TGI [7] [µM] | TGI [8] [µM] | TGI [9] [µM] | TGI [10] [µM]
O=c1oc2ccccc2n1P(=O)(Oc1ccc(Cl)cc1)n1c(=O)oc2ccccc21 | > 100 | > 100 | > 100 | > 100 | – | – | – | – | – | –
CC(=O)O[C@@H]1CC[C@@]2(C)C(=O)C34C[C@@]5(C)C([C@@H](C)CCCC(C)C)CCC5(C)[C@](O)(O3)C(=O)[C@H]4C2C1(C)C (stereo partly drawn) | 48.2 | 32.5 | 34.7 | 29.5 | 34.2 | 30.4 | – | – | – | –
C=C1CN2CCc3c([nH]c4ccccc34)C2CC1CC(=O)N(C)C (stereo not drawn) | – | > 309 | > 309 | > 309 | – | > 309 | > 309 | – | – | –
C[C@]12CCc3nn(-c4ccccc4)nc3C1CC[C@@H]1C2CC[C@]2(C)C(=O)CCC12 (stereo partly drawn) | > 100 | > 100 | > 100 | > 100 | – | > 100 | – | – | – | –
CC(N)C(C)c1ccccc1 (stereo not drawn) | > 100 | > 100 | > 100 | > 100 | – | > 100 | > 100 | – | – | –
CC(C)C(CCOS(=O)(=O)O)CCC(C)[C@H]1[C@@H](O)C(O)C2[C@]3(O)C[C@@H](O)C4(O)C[C@@H](O)CC[C@]4(C)C3CC[C@@]21C (stereo partly drawn) | > 100 | > 100 | > 100 | > 100 | – | > 100 | > 100 | – | – | –
C/C(CCN(C)C)=N\OC(=O)c1ccccc1 | > 100 | > 100 | > 100 | 8.9 | – | > 100 | – | – | – | –
Cn1c(=O)n(C2(C)CSC2)c2ccccc21 | – | > 100 | > 100 | – | – | > 100 | > 100 | – | – | –
CC1=CC[C@@H](C(C)(C)O)C[C@@H]1O | > 5000 | > 5000 | > 5000 | – | > 5000 | > 5000 | > 5000 | – | – | –
COc1ccc(-c2cc(=O)c3cc(O)ccc3o2)c(OC)c1OC | – | 58.1 | > 100 | – | > 100 | > 100 | > 100 | – | – | –
COc1nc(NC2OC(CO)C(O)C(O)C2O)c(N)c(=O)[nH]1 (stereo not drawn) | > 100 | > 100 | > 100 | > 100 | – | – | > 100 | > 100 | > 100 | > 100
CC#CC#C/C=C1\C=CC2(OC=CC2O)O1 (stereo not drawn) | > 7.37 | 10.4 | > 23.3 | 14.9 | – | > 23.3 | > 23.3 | – | – | –
CCCC(C(=O)OC)C1N=C(NC#N)N(Cc2ccccc2)C1=O (stereo not drawn) | – | > 100 | > 100 | – | – | > 100 | > 100 | – | – | –
COC(=O)C1=CCC2c3[nH]c4ccccc4c3CCN2C1 (stereo not drawn) | – | > 354 | > 354 | – | – | > 354 | – | – | – | –
CC(C)(C)CI | 79.4 | > 100 | > 100 | > 10 | > 100 | > 100 | 34.9 | – | – | –
NC(CSCSCC(N)C(=O)O)C(=O)O (stereo not drawn) | > 104 | > 225 | > 225 | > 225 | – | – | > 225 | > 71.2 | > 225 | > 225
